Experimental findings from patent US9556159B2, “Renin inhibitor” (MITSUBISHI TANABE PHARMA CORPORATION, priority 2012, dated 2017) are described below.

The first experiment deals with T1, Recombinant human renin (Homo sapiens, UniProt P00797).
T1 sequence (P00797 67-406): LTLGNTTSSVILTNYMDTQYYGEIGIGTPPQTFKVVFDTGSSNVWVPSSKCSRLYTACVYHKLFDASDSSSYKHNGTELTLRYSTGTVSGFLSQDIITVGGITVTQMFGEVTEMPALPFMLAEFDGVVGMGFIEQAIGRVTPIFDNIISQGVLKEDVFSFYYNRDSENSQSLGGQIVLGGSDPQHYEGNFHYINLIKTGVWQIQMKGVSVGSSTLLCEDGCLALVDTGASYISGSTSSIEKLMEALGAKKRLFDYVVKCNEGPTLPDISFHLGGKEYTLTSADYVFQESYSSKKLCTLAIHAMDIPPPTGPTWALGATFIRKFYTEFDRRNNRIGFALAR
Nature of the experiment: Inhibitory activity against human renin (fluorogenic peptide substrate). The settings on record: 37° C. for 1 hour, read-out: IC50. The format is biochemical. The procedure: Inhibitory Activity Against Human Renin
A substrate of synthetic peptide (Nma-KHPFH LVIHK(Dnp)-NH2) and test compound were mixed, and fluorescence intensity was assayed using a fluorophotometer before starting an enzymatic reaction (exciting wavelength: 340 nm, measuring wavelength: 460 nm). Recombinant human renin was added and the mixture was incubated at 37° C. for 1 hour, and the fluorescence intensity was measured after the reaction using a fluorophotometer (exciting wavelength: 340 nm, measuring wavelength: 460 nm).
The IC50 is the concentration at which inhibition is half-maximal. For the compound `COC(=O)NCCCn1nc([C@@H](C)N(C(=O)[C@H]2CNCCO2)C2CC2)c2ccc(CN(C)C)nc21` [Example 100], the IC50 amounted to 9 nM.

As for `COC(=O)NCCCc1nc([C@@H](C)N(C(=O)[C@H]2CNCCO2)C2CC2)ccc1OC` [Example 74], the IC50 came to 4.6 nM.

Consider `COC(=O)NCCCn1cc([C@@H](C)N(C(=O)[C@H]2CNCCO2)C2CC2)nc1OC(C)C` [Example 5, methyl (3-{4-[(1R)-1-{cyclopropyl[(2R)-morpholin-2-ylcarbonyl]amino}ethyl]-2-(propan-2-yloxy)-1H-imidazol-1-yl}propyl)carbamate], for which the half-maximal inhibitory concentration (IC50) was 0.7 nM.

`COCCCn1cc(CCCNC(=O)OC)c2cnc([C@@H](C)N(C(=O)[C@H]3CNCCO3)C3CC3)cc21` [Example 83]: the concentration for half-maximal inhibition (IC50) worked out at 2.1 nM.

Consider `COC(=O)NCCCn1nc([C@@H](C)N(C(=O)[C@H]2CNCCO2)C2CC2)c2ccc(CO)cc21` [Example 63], for which the IC50 worked out at 1.3 nM.

With `COCCCCn1cc([C@@H](C)N(C(=O)[C@H]2CNCCO2)C2CC2)c2ncc(C)cc21` [Example 20], the IC50 was 0.5 nM.

Consider `COC(=O)NCCCn1nc([C@@H](C)N(C(=O)[C@H]2CNCCO2)C2CC2)c2ccc(C)cc21` [Example 29], for which the IC50 came to 0.6 nM.

`CCOc1ccc([C@@H](C)N(C(=O)[C@H]2CNCCO2)C2CC2)cc1CCCNC(=O)OC` [Example 106]: the IC50 amounted to 0.7 nM.

For `CCc1cc([C@@H](C)N(C(=O)[C@H]2CNCCO2)C2CC2)cc(OCCNC(=O)OC)n1` [Example 109], the IC50 was 3.4 nM.

Regarding `COCCCc1cn(C)c2cnc([C@@H](C)N(C(=O)[C@H]3CNCCO3)C3CC3)cc12` [Example 33], the half-maximal inhibitory concentration (IC50) was found to be 5.3 nM.

`COC(=O)NCCCc1cc([C@@H](C)N(C(=O)[C@H]2CNCCO2)C2CC2)cc(Cl)n1` [Example 98]: the IC50 worked out at 2.8 nM.

For the compound `COCCCc1cn(C)c2ccc([C@@H](C)N(C(=O)[C@H]3CNCCO3)C3CC3)nc12` [Example 39], the IC50 was determined as 2 nM.

As to `CCc1ccnc2c([C@@H](C)N(C(=O)[C@H]3CNCCO3)C3CC3)cn(CCCCOC)c12` [Example 79], the 50% inhibitory concentration (IC50) turned out to be 0.9 nM.

The experiment is the same for the next values; noted with them: 50% inhibitory concentration (IC50) against human renin, 37° C. for 1 hour.
For `Cc1nc([C@@H](C)N(C(=O)[C@H]2CNCCO2)C2CC2)cc2c1ccn2Cc1ccccc1` [Example 148], the 50% inhibitory concentration (IC50) is 5.1 nM.

Consider `COC(=O)NCCCn1cc([C@@H](C)N(C(=O)[C@H]2CNCCO2)C2CC2)nc1-c1cccc(Cl)c1` [Example 175], for which the IC50 was found to be 0.3 nM.

Turning to `COC(=O)NCCCn1nc([C@@H](C)N(C(=O)[C@H]2CNCCO2)C2CC2)c(F)c1-c1ccccc1` [Example 192], the IC50 was found to be 0.2 nM.

As for `COC(=O)NCCCn1cc([C@@H](C)N(C(=O)[C@H]2CNCCO2)C2CC2)c2ncc(C(C)C)nc21` [Example 162], the IC50 is 0.6 nM.

Turning to `COC(=O)NCCCn1nc([C@@H](C)N(C(=O)[C@H]2CNCCO2)C2CC2)cc1-c1ncc(C)cc1F` [Example 223], the IC50 was determined as 0.4 nM.

In the case of `COC(=O)NCCCc1cc([C@@H](C)N(C(=O)[C@H]2CNCCO2)C2CC2)sc1-c1ccccc1NS(=O)(=O)C(F)(F)F` [Example 297], the IC50 turned out to be 0.5 nM.

Consider `COC(=O)NCCCc1cc([C@@H](C)N(C(=O)[C@H]2CNCCO2)C2CC2)ncc1OC` [Example 121], for which the IC50 was determined as 5.4 nM.

Take `COC[C@H]1CO[C@@H](C(=O)N(C2CC2)[C@H](C)c2cc(CCCNC(=O)OC)n(C3CCOCC3)n2)CN1` [Example 302]: the IC50 is 1.6 nM.

For `CCc1nc([C@@H](C)N(C(=O)[C@H]2CN[C@@H](C)CO2)C2CC2)cc2c1ncn2CCCOC` [Example 389], the IC50 amounted to 6.1 nM.

In the case of `COCCCCn1cc([C@@H](C)N(C(=O)[C@H]2CNCCO2)C2CC2)c2ccnc(C)c21` [Example 134], the IC50 is 6.3 nM.

For `COC(=O)NCCCc1cc([C@H](C)N(C(=O)[C@H]2CNC[C@@H](CF)O2)C2CC2)cc(OC)n1` [Example 314], the 50% inhibitory concentration (IC50) is 0.5 nM.

In the case of `COC(=O)NCCCc1cc([C@@H](C)N(C(=O)[C@H]2CN[C@@H](C)CO2)C2CC2)cc(C2CC2)n1` [Example 352], the IC50 was determined as 7.6 nM.

As to `COC(=O)NCCCn1cc([C@@H](C)N(C(=O)[C@H]2CNCCO2)C2CC2)nc1-c1ccccc1Cl` [Example 169], the IC50 was 0.3 nM.

With `COC[C@@H]1CNC[C@H](C(=O)N(C2CC2)[C@H](C)c2cn(CCCNC(=O)OC)c(-c3ccc(F)cc3)n2)O1` [Example 277], the concentration for half-maximal inhibition (IC50) amounted to 0.6 nM.

In the case of `COC(=O)NCCCc1cc([C@@H](C)N(C(=O)[C@H]2CNCCO2)C2CC2)sc1-c1ccccc1-c1cc(O)no1` [Example 281], the IC50 worked out at 0.4 nM.

For `COC(=O)NCCCn1cc([C@@H](C)N(C(=O)[C@H]2CNC[C@@H](C)O2)C2CC2)nc1-c1ccccc1` [Example 230], the 50% inhibitory concentration (IC50) amounted to 0.5 nM.

Consider `COC(=O)NCCCn1cc([C@@H](C)N(C(=O)[C@H]2CNCCO2)C2CC2)c2cnc(C)cc21` [Example 135], for which the IC50 was 6.3 nM.

As for `COC(=O)NCCCc1cc([C@H](C)N(C(=O)[C@H]2CNC[C@@H](CO)O2)C2CC2)cc(OC)n1` [Example 308], the IC50 is 0.5 nM.

Turning to `COC(=O)NCCCc1cc([C@@H](C)N(C(=O)[C@H]2CNCCO2)C2CC2)sc1-c1ccccc1F` [Example 229], the IC50 came to 0.5 nM.

As for `COC(=O)NCCCn1nc([C@@H](C)N(C(=O)[C@H]2CN[C@@H](CF)CO2)C2CC2)c2ccc(C)nc21` [Example 265], the 50% inhibitory concentration (IC50) was 6.8 nM.

Take `COC(=O)NCCN1CC(C)(C)c2ccc([C@@H](C)N(C(=O)[C@H]3CNCCO3)C3CC3)cc21` [Example 151]: the IC50 was 1 nM.

As to `COC[C@H]1CO[C@@H](C(=O)N(C2CC2)[C@@H](C)c2nn(CCCNC(=O)OC)c(C3CCOCC3)c2C)CN1` [Example 327], the concentration for half-maximal inhibition (IC50) was determined as 2.9 nM.

On to `COC(=O)NC/C=C/c1cc([C@@H](C)N(C(=O)[C@H]2CNC[C@@H](C)O2)C2CC2)nn1-c1ccc(C(F)(F)F)cc1` [Example 356], for which the concentration for half-maximal inhibition (IC50) was determined as 5.1 nM.

On to `COC[C@H]1CO[C@@H](C(=O)N(C2CC2)[C@@H](C)c2nn(CCCNC(=O)OC)c(-c3ccccn3)c2C)CN1` [Example 338], for which the half-maximal inhibitory concentration (IC50) came to 5.3 nM.

Regarding `CC[C@H]1CO[C@@H](C(=O)N(C2CC2)[C@@H](C)c2cn(CCCNC(=O)OC)c(OC(C)C)n2)CN1` [Example 336], the half-maximal inhibitory concentration (IC50) came out at 1.6 nM.

For `COCCCc1cc([C@@H](C)N(C(=O)[C@H]2CNC[C@@H](COC)O2)C2CC2)cc(CCCNC(=O)OC)n1` [Example 382], the IC50 was 3.6 nM.

Turning to `COC(=O)NCCCn1nc([C@@H](C)N(C(=O)[C@H]2CNCCO2)C2CC2)c(F)c1-c1ccccn1` [Example 216], the IC50 stood at 0.1 nM.

`CCc1nc([C@@H](C)N(C(=O)[C@H]2CN[C@@H](COC)CO2)C2CC2)cc2c1ncn2CCCOC` [Example 393]: the IC50 worked out at 3.7 nM.

Take `COC(=O)NCCCn1nc([C@@H](C)N(C(=O)[C@H]2CNCCO2)C2CC2)cc1C(C)(C)C` [Example 191]: the IC50 is 0.7 nM.

As for `COC(=O)NC/C=C/c1cc([C@@H](C)N(C(=O)[C@H]2CNCCO2)C2CC2)nn1-c1ccccc1` [Example 357], the half-inhibitory concentration (IC50) worked out at 3.5 nM.

For `COC(=O)NCCCn1cc([C@@H](C)N(C(=O)[C@H]2CN[C@@H](C)CO2)C2CC2)nc1-c1ccccc1` [Example 353], the IC50 is 0.4 nM.

In the case of `COCCOc1cc([C@@H](C)N(C(=O)[C@H]2CNC[C@@H](C)O2)C2CC2)cc(CCCNC(=O)OC)n1` [Example 366], the IC50 was 0.7 nM.

For the compound `COCCCCc1cc([C@@H](C)N(C(=O)[C@H]2CNC[C@@H](COC)O2)C2CC2)cc(OC)n1` [Example 304], the IC50 came out at 0.7 nM.

In the case of `COC(=O)NCCCn1nc([C@@H](C)N(C(=O)[C@H]2CNCCO2)C2CC2)c2c1CCC2` [Example 190], the concentration for half-maximal inhibition (IC50) is 1.2 nM.

For `COC(=O)NCCCc1cc(C(C)N(C(=O)[C@H]2CNCCO2)C2CC2)sc1C1CCOCC1` (stereo partly shown) [Example 419], the IC50 was found to be 1.4 nM.

As for `COC(=O)NCCCc1cc([C@@H](C)N(C(=O)[C@H]2CNCCO2)C2CC2)nn1-c1cccc(C(F)(F)F)c1` [Example 348], the IC50 came out at 0.7 nM.

For the compound `COCCCCn1cc([C@@H](C)N(C(=O)[C@H]2CNCCO2)C2CC2)nc1-c1ccccc1` [Example 160], the IC50 came out at 0.8 nM.

Regarding `COC(=O)NCCCc1cc([C@@H](C)N(C(=O)[C@H]2CNCCO2)C2CC2)nn1-c1ccccc1C` [Example 222], the IC50 is 0.5 nM.

For `COC(=O)NCCCn1nc([C@@H](C)N(C(=O)[C@H]2CN[C@H](CC(F)F)CO2)C2CC2)c2ccc(C)nc21` [Example 307], the IC50 came out at 6.6 nM.

Take `COC(=O)NCCCc1cc(C(C)N(C(=O)[C@H]2CNCCO2)C2CC2)sc1C1CC1` (stereo partly shown) [Example 396]: the IC50 amounted to 4.8 nM.

As for `COC(=O)NCCCn1nc([C@@H](C)N(C(=O)[C@H]2CN[C@@H](CCF)CO2)C2CC2)c2ccc(C)nc21` [Example 332], the IC50 came to 0.4 nM.

Take `COC(=O)NC/C=C/c1cc([C@@H](C)N(C(=O)[C@H]2CN[C@@H](C)CO2)C2CC2)nn1-c1ccccc1` [Example 358]: the half-maximal inhibitory concentration (IC50) was 5.7 nM.

As for `COC(=O)NCCCn1cc([C@@H](C)N(C(=O)[C@H]2CNCCO2)C2CC2)c2ncc(Br)cc21` [Example 114], the half-inhibitory concentration (IC50) stood at 1.1 nM.

As to `COCCCc1cn(C)c2c(C)nc([C@@H](C)N(C(=O)[C@H]3CNCCO3)C3CC3)cc12` [Example 113], the 50% inhibitory concentration (IC50) was 1.4 nM.

Turning to `COC(=O)NCCCn1nc([C@@H](C)N(C(=O)[C@H]2CN[C@@H](COCC(F)(F)F)CO2)C2CC2)c2ccc(C)nc21` [Example 278], the IC50 is 1.2 nM.
